{"source": "patent US8119112B2", "about": "“Ophthalmic compositions with an amphoteric surfactant and hyaluronic acid” (Bausch & Lomb Incorporated, priority 2008, dated 2012)", "assay": "Precipitate formation of polyquaternium-1 with hyaluronic acid", "type": "physicochemical", "description": "One of the more common quaternary ammonium compounds is α-[4-tris(2-hydroxyethyl)-ammonium chloride-2-butenyl]poly[1-dimethyl ammonium chloride-2-butenyl]-ω-tris(2-hydroxyethyl) ammonium chloride, also referred to in the art as polyquaternium-1. Quaternary ammonium compounds are generally referred to in the art as “polyquaternium” disinfectants, and are identified by a particular number following the designation such as polyquaternium-1, polyquaternium-10 or polyquaternium-42. Polyquaternium-1 is present in the ophthalmic compositions from 0.5 ppm to 3 ppm. […] The precipitate is believed to be the complexation product of hyaluronic acid and polyquaternium-1.", "data": [{"substance": "α-[4-tris(2-hydroxyethyl)-ammonium chloride-2-butenyl]poly[1-dimethyl ammonium chloride-2-butenyl]-ω-tris(2-hydroxyethyl) ammonium chloride [polyquaternium-1]", "values": [{"measurement": "concentration of polyquaternium-1 in the compositions that results in formation of a precipitate", "result": "> 3", "unit": "ppm"}]}]}
